These results are taken from article PMC9732823, “Discovery of Dual Aβ/Tau Inhibitors and Evaluation of Their Therapeutic Effect on a Drosophila Model of Alzheimer’s Disease” (ACS Chemical Neuroscience, 2022).

What is called inhibition is the relative decrease from the control value, in per cent. One may read the Papp as the rate of passage across a membrane or cell layer, normalised by area and donor concentration.

A short description of one data set: PAMPA-BBB assay. The note with it: for Papp: pH 7.4. The text has this:
Thus, to reduce attrition in the development process, the evaluation of BBB penetration at a very early drug discovery stage is of crucial importance. In light of this, the ability of the previously selected compounds to cross the BBB was predicted by a parallel artificial membrane permeability assay (PAMPA)-BBB,[41] a high-throughput technique widely used as an indicator of a molecule’s passive diffusion through the BBB. Six commercially available drugs were used to validate the assay.
PAMPA (the parallel artificial membrane permeability assay) is a high-throughput screening tool applicable for the prediction of the passive transport of potential drugs across the BBB.[41] In this study, it has been used as a non-cell-based in vitro assay carried out in a coated 96-well membrane filter. The filter membrane of the donor plate was coated with PBL (Polar Brain Lipid, Avanti) in dodecane (4 μL of 20 mg/mL PBL in dodecane) and the acceptor well was filled with 300 μL of phosphate buffer saline, (PBS pH 7.4; VA). The tested compounds were dissolved first in DMSO and then diluted with PBS pH 7.4 to reach the final concentrations of 50–500 μM in the donor well. […] Then, 300 μL of the donor solution (VD) was added to the donor wells and the donor filter plate was carefully put on the acceptor plate so that the coated membrane was “in touch” with both donor solution and acceptor buffer. In principle, the test compound diffuses from the donor well through the polar brain lipid membrane (area = 0.28 cm^2) to the acceptor well. The concentrations of the tested compound in both donor and the acceptor wells were assessed after 3, 4, 5, and 6 h of incubation in quadruplicate using a UV plate reader, Synergy HT (Biotek) at the maximum absorption wavelength of each compound (n=3). In addition to that, solution of the theoretical compound concentration, simulating the equilibrium state established if the membrane were ideally permeable, was prepared and assessed as well. The concentrations of the compounds in the donor and acceptor wells and the equilibrium concentration were calculated from the standard curve and expressed as the permeability (Pe) according to the equation[41] [drawing 1] where [drawing 2]
In general terms: PAMPA measures passive passage across an artificial lipid membrane.

Another data set deals with T1, Aβ42 (Homo sapiens, UniProt P05067).
T1 construct: expressed in transfected cells; host or cells: Escherichia coli BL21 (DE3), pET28a
Nature of the data set: Inhibition of Aβ42 aggregation in intact E. coli cells overexpressing Aβ42 (ThS fluorescence). The format is cell-based, Escherichia coli. The note with it: for inhibition at 10 µM: read-out: % inhibition Aβ42 aggregation @ 10 μM, intact E. coli cells, compound 10 μM, mean ± SEM of four independent experiments. The text has this:
(§1) As it would have been labor-intensive and expensive to screen such a number of compounds in two separate antiaggregating studies using recombinant Aβ and Tau, we turned our attention to a simple model of protein aggregation, namely, the intact Escherichia coli (E. coli) cells overexpressing Aβ42 and Tau proteins.[28],[29] Building on the fact that inclusion bodies produced by overexpression of these proteins in E. coli mainly consist of fibrillar aggregates, this simple screening method uses bacteria as an in vivo reservoir for tracking the inhibition of amyloid-type protein aggregation in real time, using the amyloid dye thioflavin S (ThS). Of note, this screening has already been used for the evaluation of libraries of antiaggregating compounds.[28]−[38]
Escherichia coli competent cells BL21 (DE3) were transformed with the pET28a vector (Novagen, Inc., Madison, WI) carrying the DNA sequence of Aβ42. Because of the addition of the initiation codon ATG in front of both genes, the overexpressed peptide contains an additional methionine residue at its N terminus. For overnight culture preparation, an amount of 10 mL of M9 minimal medium containing 50 μg·mL^–1 kanamycin was inoculated with a colony of BL21 (DE3) bearing the plasmid to be expressed at 37 °C. For expression of the Aβ42 peptide, the required volume of overnight culture to obtain 1:500 dilution was added into fresh M9 minimal medium containing 50 μg·mL^–1 kanamycin and 250 μM ThS. The bacterial culture was grown at 37 °C and 250 rpm. When the cell density reached ABS600 nm = 0.6, an amount of 980 μL of culture was transferred into Eppendorf tubes of 1.5 mL with 10 μL of each compound to be tested in DMSO and 10 μL of isopropyl 1-thio-β-D-galactopyranoside (IPTG) at 100 mM. The final concentration of the drug was fixed at 10 μM. The samples were grown overnight at 37 °C and 1400 rpm using a thermomixer (Eppendorf, Hamburg, Germany). As the control of the amyloid presence (maximal amyloid presence), the same amount of DMSO without the drug was added to the sample. In parallel, noninduced samples (in the absence of IPTG) were also prepared and used as controls of the non-amyloid presence. In addition, the absorbance at 600 nm of the samples was checked to assess the potential intrinsic toxicity of the compounds and to confirm the correct bacterial growth.
(§2) ThS (T1892) and other chemical reagents were purchased from Sigma (St. Louis, MO). ThS stock solution (25 mM) was prepared in double-distilled water purified through a Milli-Q system (Millipore). For the fluorescence assay, the ThS spectra were measured on an AMINCO-Bowman series 2 luminescence spectrophotometer (Aminco-Bowman AB2, SLM Aminco, Rochester, NY) from 460 to 600 nm at 25 °C using an excitation wavelength of 440 nm and slit widths of 4 nm. The emission at 485 nm (fluorescence peak of ThS in the presence of amyloids) was recorded. To normalize the ThS fluorescence as a function of the bacterial concentration, ABS600nm was obtained using a Shimadzu UV-2401 PC UV–Vis spectrophotometer (Shimadzu, Japan). Note that the fluorescence normalization was carried out considering as 100% the ThS fluorescence of the bacterial cells expressing the peptide or protein in the absence of the drug and 0% the ThS fluorescence of the bacterial cells nonexpressing the peptide or protein.

The target of another data set is T2, Tau protein (Homo sapiens, UniProt P10636).
T2 construct: expressed in transfected cells; host or cells: Escherichia coli BL21 (DE3) with pTARA and pRKT42
Briefly: Inhibition of Tau aggregation in intact E. coli cells overexpressing Tau (ThS fluorescence). The format is cell-based, Escherichia coli. The note with it: for % inhibition Tau aggregation @ 10 μM: intact E. coli cells, compound 10 μM, mean ± SEM of four independent experiments; for inhibition at 10 µM: read-out: % inhibition Tau aggregation @ 10 μM, intact E. coli cells, compound 10 μM, mean ± SEM of four independent experiments.
Source text: as §1
E. coli BL21 (DE3) competent cells were transformed with pTARA containing the RNA-polymerase gen of the T7 phage (T7RP) under the control of the promoter PBAD. E. coli BL21 (DE3) with pTARA competent cells were transformed with the pRKT42 vector encoding four repeats of Tau protein in two inserts. For overnight culture preparation, 10 mL of M9 medium containing 0.5% of glucose, 100 μg·mL^–1 ampicillin, and 12.5 μg·mL^–1 chloramphenicol were inoculated with a colony of BL21 (DE3) bearing the plasmids to be expressed at 37 °C. For expression of Tau protein, the required volume of overnight culture to obtain 1:500 dilution was added to fresh M9 minimal medium containing 0.5% of glucose, 50 μg·mL^–1 ampicillin, 12.5 μg·mL^–1 chloramphenicol, and 25 μM ThS. The bacterial culture was grown at 37 °C and 250 rpm. When the cell density reached ABS600 nm= 0.6, an amount of 980 μL of culture was transferred into Eppendorf tubes of 1.5 mL with 10 μL of each compound to be tested in DMSO and 10 μL of arabinose at 25%. The final concentration of the drug was fixed at 10 μM. The samples were grown overnight at 37 °C and 1400 rpm using a thermomixer (Eppendorf, Hamburg, Germany). As the control of maximal amyloid presence, the same amount of DMSO without the drug was added to the sample. In parallel, noninduced samples (in the absence of arabinose) were also prepared and used as controls for the amyloid absence. In addition, the absorbance at 600 nm of the samples was checked to assess the potential intrinsic toxicity of the compounds and to confirm the correct bacterial growth.
as §2

Data set [1] concerns cerebellar granule neurons (CGNs). Nature of the data set: Neurotoxicity on primary cultures of cerebellar granule neurons (nuclei counting after Hoechst staining). The note with it: differentiated CGNs, 24 h, percentage of healthy nuclei on total nuclei, mean ± SEM of three experiments.

T2 sequence (P10636 1-441 isoform P10636-8): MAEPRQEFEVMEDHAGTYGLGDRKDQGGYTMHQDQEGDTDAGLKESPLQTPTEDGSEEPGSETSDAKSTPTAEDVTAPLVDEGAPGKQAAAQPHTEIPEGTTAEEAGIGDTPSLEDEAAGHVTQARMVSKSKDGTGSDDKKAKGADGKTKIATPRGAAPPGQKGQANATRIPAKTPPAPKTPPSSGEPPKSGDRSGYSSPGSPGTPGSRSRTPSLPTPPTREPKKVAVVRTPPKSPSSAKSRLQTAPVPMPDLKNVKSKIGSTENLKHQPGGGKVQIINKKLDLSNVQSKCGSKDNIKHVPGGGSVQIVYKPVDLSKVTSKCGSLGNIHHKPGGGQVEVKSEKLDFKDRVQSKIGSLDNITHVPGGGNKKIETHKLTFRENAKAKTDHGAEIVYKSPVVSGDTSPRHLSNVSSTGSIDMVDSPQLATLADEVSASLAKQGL
T1 sequence (P05067 672-713 limits assumed): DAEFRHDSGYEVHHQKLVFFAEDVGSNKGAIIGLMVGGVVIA

On to `CO/N=C(\C(=O)N[C@@H]1C(=O)N2C(C(=O)O)=C(COC(N)=O)CS[C@H]12)c1ccco1` [Cefuroxime, reference compound], for which the “CNS (+/-)” value in the data set “PAMPA-BBB assay” (PAMPA-BBB penetration estimation) is “CNS - (CNS - (low BBB permeation predicted): Pe (×10-6 cm s-1) < 2.0)”.

For the compound `O=C(O)CN1C(=O)S/C(=C\c2ccc3[nH]c4ccc(/C=C5\SC(=O)N(CC(=O)O)C5=O)cc4c3c2)C1=O` [Compound 16, 2,2′-((5Z,5′Z)-((9H^–Carbazole-3,6-diyl)bis(methanylylidene))bis(2,4-dioxothiazolidin-3-yl-5-ylidene))diacetic acid], the “% inhibition Aβ42 aggregation @ 10 μM” value on Aβ42 (intact E. coli cells, compound 10 μM, mean ± SEM of four independent experiments, 10 µM) worked out at 32.1 ± 3.1%. Moreover, the inhibition at 10 µM on Aβ42 and at Tau protein was 30 to 40% each time. Also, on Tau protein, the “% inhibition Tau aggregation @ 10 μM” value is 37.9 ± 3.5%. Further, the Papp in the data set “PAMPA-BBB assay” (PAMPA) came to 0.55 ± 0.12 ×10⁻⁶ cm/s. In addition, in data set [1], the “% survival neurotoxicity @ 10 μM” value is given as 90.0 ± 2.8%.

With `CC1(C)c2cc(/C=C3\SC(=O)N(CC(=O)O)C3=O)ccc2-c2ccc(/C=C3\SC(=O)N(CC(=O)O)C3=O)cc21` [Compound 17, 2,2′-((5Z,5′Z)-((9,9-Dimethyl-9H-fluorene-2,7-diyl)bis(methanylylidene))bis(2,4-dioxothiazolidin-3-yl-5-ylidene))diacetic acid], the inhibition at 10 µM on Aβ42 and on Tau protein was greater than 50% in each case. Further, the apparent permeability (Papp) in “PAMPA-BBB assay” (PAMPA) came out at 0.88 ± 0.2 ×10⁻⁶ cm/s. Moreover, the “% survival neurotoxicity @ 10 μM” value in data set [1] was found to be 89.3 ± 2.3%.

In the case of `O=C(O)CN1C(=O)S/C(=C\c2ccc(-c3ccc(/C=C4\SC(=O)N(CC(=O)O)C4=O)s3)s2)C1=O` [Compound 18, 2,2′-((5Z,5′Z)-([2,2′-Bithiophene]-5,5′-diylbis(methanylylidene))bis(2,4-dioxothiazolidin-3-yl-5-ylidene))diacetic acid], the inhibition at 10 µM on Aβ42 is 65.6 ± 3.3%; at Tau protein, less than 20%. Besides, the “% inhibition Tau aggregation @ 10 μM” value at Tau protein stood at 15.8 ± 4.7%. In data set [1], the “% survival neurotoxicity @ 10 μM” value is reported as 90.9 ± 3.1%.

Take `CN(C)CCN1C(=O)S/C(=C\c2ccc(/C=C3\SC(=O)N(CCN(C)C)C3=O)cc2)C1=O` [Compound 19, (5Z,5′Z)-5,5′-(1,4-Phenylenebis(methanylylidene))bis(3-(2-(dimethylamino)ethyl)thiazolidine-2,4-dione)]: the inhibition at 10 µM on Aβ42 was 8.1 ± 4.4%; on Tau protein, 19.4 ± 3.6%. Besides, the “% survival neurotoxicity @ 10 μM” value in data set [1] came to 89.4 ± 2.0%.

`CN(C)CCN1C(=O)S/C(=C\c2ccc(-c3ccc(/C=C4\SC(=O)N(CCN(C)C)C4=O)cc3)cc2)C1=O` [Compound 20, (5Z,5′Z)-5,5′-([1,1′-Biphenyl]-4,4′-diylbis(methanylylidene))bis(3-(2-(dimethylamino)ethyl)thiazolidine-2,4-dione)]: the inhibition at 10 µM was found to be 26.4 ± 4.2% at Aβ42 and 34.9 ± 1.9% at Tau protein. Further, in data set [1], the “% survival neurotoxicity @ 10 μM” value is listed as 91.1 ± 0.9%.

With `CN(C)CCN1C(=O)S/C(=C\c2ccc(Cc3ccc(/C=C4\SC(=O)N(CCN(C)C)C4=O)cc3)cc2)C1=O` [Compound 21, (5Z,5′Z)-5,5′-((Methylenebis(4,1-phenylene))bis(methanylylidene))bis(3-(2-(dimethylamino)ethyl)thiazolidine-2,4-dione)], the inhibition at 10 µM on Aβ42 was found to be 16.1 ± 3.8%; at Tau protein it was 38.7 ± 3.3%. For the same compound, the “% survival neurotoxicity @ 10 μM” value in data set [1] is listed as 91.1 ± 1.5%.

Turning to `CN(C)CCN1C(=O)S/C(=C\c2ccc(-c3ccc(/C=C4\SC(=O)N(CCN(C)C)C4=O)s3)s2)C1=O` [Compound 24, (5Z,5′Z)-5,5′-([2,2′-Bithiophene]-5,5′-diylbis(methanylylidene))bis(3-(2-(dimethylamino)ethyl)thiazolidine-2,4-dione)], the results for the inhibition at 10 µM at Aβ42 and on Tau protein were 20.3 ± 4.8% and 17.3 ± 4.5%, respectively. Besides, the “% survival neurotoxicity @ 10 μM” value in data set [1] is recorded as 88.8 ± 2.3%.

Consider `CCN(C)C(=O)Oc1cccc([C@H](C)N(C)C)c1` [Rivastigmine, reference compound], for which, in “PAMPA-BBB assay” (PAMPA), the “CNS (+/-)” value is “CNS + (key: CNS + (high BBB permeation predicted): Pe (×10-6 cm s-1) > 4.0; CNS - (low BBB permeation predicted): Pe (×10-6 cm s-1) < 2.0; CNS +/- (uncertain BBB permeation): Pe (×10-6 cm s-1) from 4.0 to 2.0)”.
